Consider 15 compounds from patent US20120053165A1, “Novel Phenyl Imidazoles and Phenyl Triazoles As Gamma-Secretase Modulators” (Pfizer Inc., priority 2009, published 2012).

Counter-ions that a name gives are not always drawn.
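Note: Aβ(1-42) released into conditioned medium captured by ELISA after roughly 24 h compound exposure, vehicle and inhibitor controls defining maximal and minimal inhibition.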

The first assay deals with production of amyloid beta protein Aβ(1-42) in human WT-APP overexpressing CHO cells. The note with it: Homo sapiens, CHO, read-out: Aβ 42 IC50.
Method: Cell-Based γ-Secretase Assay with ELISA Readout
The ability of compounds to modulate production of amyloid beta protein Aβ(1-42) was determined using human WT-APP overexpressing CHO cells. Cells were plated at 22,000 cells/100 μL well in 96 well tissue culture treated, clear plates (Falcon) in DMEM/F12 based medium and incubated for 24 hours at 37° C. […] Compounds were added in fresh medium to achieve 1% final DMSO. Appropriate vehicle and inhibitor controls were added to obtain maximum and minimum inhibition values for the assay before the plates were incubated for about 24 hours at 37° C.
Coating of ELISA assay plates was initiated by addition of 50 μL/well of an in house Aβ(1-42) specific antibody at (4 μg/mL) in 0.1 M NaHCO3 (pH 9.0) into black 384-well Maxisorp® plates (Nunc) and incubated overnight at 4° C. […] Ambient temperature incubation was allowed to proceed for a minimum of two hours before washing 2×100 μL with Wash Buffer (Dulbecco's PBS, 0.05% Tween 20). Assay Buffer (Dulbecco's PBS, 1.0% BSA (Sigma A7030), 0.05% Tween 20) 20 μL/well is then added.
After incubation overnight at 37° C., 5% CO2, 40 μL (in duplicate) of experimental conditioned media are transferred into wells of the blocked ELISA plates containing the capture antibody, followed by overnight incubation at 4° C.
After overnight incubation of the ELISA assay plates at 4° C., unbound Aβ peptides were removed thorough (4×100 μL) washes with Wash Buffer.
For the compound `COc1cc(C(=O)NCCc2ccc(Cl)cc2)ccc1-n1cnc(C)c1` [Example 103, N-[2-(4-chlorophenyl)ethyl]-3-methoxy-4-(4-methyl-1H-imidazol-1-yl)benzamide], the IC50 worked out at 698 nM.

As for `COc1cc(C(=O)NCCc2c(C)[nH]c3ccc(C)cc23)ccc1-n1cnc(C)c1` [Example 73, N-[2-(2,5-dimethyl-1H-indol-3-yl)ethyl]-3-methoxy-4-(4-methyl-1H-imidazol-1-yl)benzamide], the IC50 was 444 nM.

The assay is the same for the next values; noted with them: Homo sapiens, CHO, read-out: Aβ 42 IC50, Geometric mean of 2-8 determinations; human WT-APP overexpressing CHO cells.
With `COc1cc(C(=O)NCc2csc(-c3ccc(C(F)(F)F)cc3)n2)ccc1-n1cnc(C)c1` [Example 50, 3-methoxy-4-(4-methyl-1H-imidazol-1-yl)-N-({2-[4-(trifluoromethyl)phenyl]-1,3-thiazol-4-yl}methyl)benzamide], the concentration for half-maximal inhibition (IC50) was 152 nM.

For `COc1cc(C(=O)NC(c2ccc(F)cc2)c2nc3ccccc3n2C)ccc1-n1cnc(C)c1` (stereo not drawn) [Example 107, N-[(4-fluorophenyl)(1-methyl-1H-benzimidazol-2-yl)methyl]-3-methoxy-4-(4-methyl-1H-imidazol-1-yl)benzamide], the concentration for half-maximal inhibition (IC50) stood at 735 nM.

With `COc1cc(C(=O)N2CC[C@@H](Oc3ccccc3C(F)(F)F)C2)ccc1-n1cnc(C)c1` [Example 11, 1-[2-methoxy-4-({(3R)-3-[2-(trifluoromethyl)phenoxy]pyrrolidin-1-yl}carbonyl)phenyl]-4-methyl-1H-imidazole], the concentration for half-maximal inhibition (IC50) was 96 nM.

`COc1cc(C(=O)NC2COc3c(F)cc(Cl)cc32)ccc1-n1cnc(C)c1` (single isomer, unassigned) [Example 127, N-(5-chloro-7-fluoro-2,3-dihydro-1-benzofuran-3-yl)-3-methoxy-4-(4-methyl-1H-imidazol-1-yl)benzamide trifluoroacetate salt]: the IC50 came to 521 nM.

Consider `COc1cc(C(=O)NCc2nc3cc(Cl)c(C)cc3o2)ccc1-n1cnc(C)c1` [Example 86, N-[(5-chloro-6-methyl-1,3-benzoxazol-2-yl)methyl]-3-methoxy-4-(4-methyl-1H-imidazol-1-yl)benzamide], for which the IC50 worked out at 544 nM.

Still in this assay, the particulars now being: Homo sapiens, CHO, read-out: Aβ 42 IC50, Single IC50 determination; human WT-APP overexpressing CHO cells.
Regarding `COc1cc(C(=O)NCC2C3CC4CC(C3)CC2C4)ccc1-n1cnc(C)c1` (stereo not drawn) [Example 40, N-(adamantan-2-ylmethyl)-3-methoxy-4-(4-methyl-1H-imidazol-1-yl)benzamide], the concentration for half-maximal inhibition (IC50) was 185 nM.

Still in this assay, the particulars now being: Homo sapiens, CHO, read-out: GM Aβ 42B IC50, Geometric Mean of 2-8 Determinations; human WT-APP overexpressing CHO cells.
Consider `Cc1cn(-c2ccc(C(=O)NCCc3cccc(Cl)c3)cc2F)cn1` [Example 8, N-[2-(3-chlorophenyl)ethyl]-3-fluoro-4-(4-methyl-1H-imidazol-1-yl)benzamide], for which the IC50 came to 960 nM.

The assay is the same for the next values; noted with them: read-out: Aβ 42 IC50; Geometric mean of 2-8 determinations; human WT-APP overexpressing CHO cells.
Take `COc1cc(C(=O)NCCc2c[nH]c3ccc(C)cc23)ccc1-n1cnc(C)c1` [Example 97, 3-methoxy-4-(4-methyl-1H-imidazol-1-yl)-N-[2-(5-methyl-1H-indol-3-yl)ethyl] benzamide]: the concentration for half-maximal inhibition (IC50) was 634 nM.

Regarding `COc1cc(C(=O)NCc2ccc(Cl)c(Cl)c2)ccc1-n1cnc(C)c1` [Example 67, N-(3,4-dichlorobenzyl)-3-methoxy-4-(4-methyl-1H-imidazol-1-yl) benzamide], the IC50 was determined as 410 nM.

Regarding `COc1cc(C(=O)NCc2cccc(Cl)c2)ccc1-n1cnc(C)c1` [Example 84, N-(3-chlorobenzyl)-3-methoxy-4-(4-methyl-1H-imidazol-1-yl) benzamide], the IC50 stood at 520 nM.

Take `COc1cc(C(=O)NCCc2nc3cc(C)ccc3o2)ccc1-n1cnc(C)c1` [Example 121, 3-methoxy-N-[2-(5-methyl-1,3-benzoxazol-2-yl)ethyl]-4-(4-methyl-1H-imidazol-1-yl) benzamide]: the IC50 came to 880 nM.

With `COc1cc(C(=O)NC(C)c2ccc3[nH]ccc3c2)ccc1-n1cnc(C)c1` (stereo not drawn) [Example 99, N-[1-(1H-indol-5-yl)ethyl]-3-methoxy-4-(4-methyl-1H-imidazol-1-yl) benzamide], the concentration for half-maximal inhibition (IC50) came to 665 nM.

`COc1cc(C(=O)NCc2noc3ccc(Cl)cc23)ccc1-n1cnc(C)c1` [Example 17, N-[(5-chloro-1,2-benz-isoxazol-3-yl)methyl]-3-methoxy-4-(4-methyl-1H-imidazol-1-yl) benzamide]: the IC50 worked out at 371 nM.
